Assay results from US11267806B2, “Indazole compound for use in inhibiting kinase activity, composition and application thereof” (Shenzhen TargetRx, Inc., priority 2017, dated 2022).
Read-outs that look alike come from different tables or passages of the source.

Key:
[1] = Liver microsomal metabolism assay, rat; assay type: in vitro ADME; settings: SD, pH 7.4, rat liver microsomes 0.5 mg/mL, compound 1 μM, 37° C.; for microsomal CLint at 1 μM: read-out: Rat liver microsome assay CLint; for half-life at 1 μM: read-out: Rat liver microsome assay t1/2
Description: (§1) (3) Liver Microsomal Metabolism Assay
(§2) […]; Coenzyme (NADPH/NADH): 1 mM, Sigma Life Science; Magnesium chloride: 5 mM, 100 mM phosphate buffer (pH 7.4).
(§3) Preparation of stock solutions: Powder of the compounds were accurately weighed and dissolved in DMSO to 5 mM.
(§4) Preparation of phosphate buffer (100 mM, pH7.4): A pre-prepared 0.5M potassium dihydrogen phosphate (150 mL) was mixed with 0.5M dibasic potassium phosphate (700 mL). The pH of the mixture was adjusted to 7.4 with 0.5M dibasic potassium phosphate solution. The mixture was diluted 5-fold with ultrapure water before use, and magnesium chloride was added to obtain a phosphate buffer (100 mM) containing 100 mM potassium phosphate, 3.3 mM magnesium chloride, pH 7.4.
(§5) A NADPH regeneration system solution (containing 6.5 mM NADP, 16.5 mM G-6-P, 3 U/mL G-6-P D, 3.3 mM magnesium chloride) was prepared and placed on wet ice prior to use.
(§6) Incubation of the samples: The stock solutions of the respective compounds were respectively diluted to 0.25 mM with an aqueous solution containing 70% acetonitrile, and used as a working solution, ready for use. 398 μL of the dilution of human liver microsomes or rat liver microsomes were added to 96-well incubation plates (N=2), respectively, and 2 μL of 0.25 mM working solution was added and mixed.
(§7) Metabolic stability assay: 300 μL of pre-chilled stop solution was added to each well of 96-well deep well plates and placed on ice as stop plates. The 96-well incubation plates and NADPH regeneration system were placed in a 37° C. water bath box, shaken at 100 rpm and pre-incubated for 5 min. 80 μL of incubation solution was taken out from each well of the incubation plates and added to the stop plates, mixed, and replenished with 20 μL of NADPH regeneration system solution as a 0-min sample. 80 μL of NADPH regeneration system solution was added to each well of the incubation plates to start the reaction and start counting. […] Separately, 100 μL of the reaction solutions was taken at 10, 30, and 90 min reaction, respectively, added to stop plates, and vortexed for 3 minutes to terminate the reaction. The stop plates were centrifuged at 5000×g at 4° C. for 10 min. 100 μL of the supernatant was added to a 96-well plate to which 100 μL of distilled water was previously added, mixed, and analyzed by LC-MS/MS.
(§8) Data analysis: The peak areas of the corresponding compounds and internal standard were detected by LC-MS/MS system, and the ratio of the peak area of the compounds to the internal standard was calculated.
(§9) The metabolic stability of the compounds in human and rat liver microsomes was evaluated by simultaneously testing and comparing the compounds disclosed herein and the non-deuterated compound. […]

KM12 (TPM3-TRKA) cells = assay: cells; settings: Homo sapiens, KM12, 72 h, read-out: KM12 IC50
Description: (§10) Assay methods: 1. Preparation of cell plates: Ba/F3, and Ba/F3 Bcr-Abl T315I cells were separately seeded in 96-well plates, and 8 ng/ml IL-3 was added to Ba/F3 cells. The cell plates were placed in a carbon dioxide incubator for culture overnight. 2. […] 3. Treatment of cells with compounds: The compounds were transferred to cell plates at a starting concentration of 10 μM. The cell plates were incubated in a carbon dioxide incubator for 3 days. 4. Detection: CellTiter-Glo reagent was added to the cell plates and incubated for 30 minutes at room temperature to stabilize the luminescence signal. Readings were performed using a PerkinElmer Envision multi-label analyzer.

[2] = system: HCC-78 (SLC34A2-ROS1) cells; assay: cells; settings: Homo sapiens, HCC78, 72 h, read-out: HCC-78 IC50
Description: as §10

Ba/F3 EML-ALK cells = assay: Cytotoxicity assay (cell viability, CellTiter-Glo), Ba/F3 EML-ALK; assay type: cell-based; settings: Mus musculus, BaF3, 72 h, read-out: Ba/F3 EML-ALK IC50
[3] = Liver microsomal metabolism assay, human; assay type: in vitro ADME; settings: pH 7.4, human liver microsomes 0.5 mg/mL, compound 1 μM, 37° C.; for microsomal CLint at 1 μM: read-out: Human liver microsome assay CLint; for half-life at 1 μM: read-out: Human liver microsome assay t1/2
Description: as §1, §2, §3, §4, §5, §6, §7, §8, §9

[4] = system: Ba/F3 EML-ALK^L1196M cells; assay: Cytotoxicity assay (cell viability, CellTiter-Glo), Ba/F3 EML-ALK L1196M; assay type: cell-based; settings: Mus musculus, BaF3, 72 h; cell viability, 3 days incubation; read-out: Ba/F3 EML-ALK^L1196M IC50
[5] = Pharmacokinetic assay in rats; assay type: in vivo, SD rat; settings: male SD rats, i.g., 3 mg/kg; for AUC(0-t) / Cmax / MRT / Tmax: rat, plasma, po
Description: (4) Pharmacokinetic Assay in Rats Assay objective: after administration of test compounds to rats, the pharmacokinetic behavior of the compounds disclosed herein was investigated. Assay Animals: Species and strains: SD rat grade: SPF grade Gender and quantity: male, 6 Weight range: 180 to 220 g (the actual weight range was from 187 to 197 g) Assay Procedure: Before blood samples were collected, 20 μL of 2 M sodium fluoride solution (esterase inhibitor) was previously added to an EDTA-K2 anticoagulant tube, dried in an 80° C. oven, and placed in a 4° C. refrigerator. Rats (male, weighing 187 to 197 g) were randomly divided into 2 groups, and were fasted overnight in the afternoon before the experiment but were allowed to drink water freely. Food was given 4 hours after the administration. […] About 100-200 μL of blood was taken from the orbital vein of rats at 15 min, 30 min, 1, 2, 3, 5, 8 and 10 h after administration, placed in a 0.5 mL Eppendorf tube with EDTA-K2 anticoagulant and mixed immediately. After anticoagulation, the tube was gently inverted 5-6 times as quickly as possible. After the blood was taken, it was placed in an ice box, and then within 30 min, the blood sample was centrifuged for 10 min at 4000 rpm and 4° C. to separate the plasma. Immediately after collection of all plasma, it was stored at −20° C. The concentration of the drug in plasma at each time point was determined after sample collection at all time points. Based on the data of the average concentration of the drug in plasma versus time after administration obtained as described above, pharmacokinetics-related parameters of male SD rats after the i.g. administration of test compounds (3 mg/kg) were calculated using the Winnonin software according to non-compartment statistical moment theory.

[6] = cell viability, 3 days incubation

[2H]C1([2H])N(C)C([2H])([2H])C([2H])([2H])N(c2ccc(C(=O)Nc3n[nH]c4ccc(Cc5cc(F)cc(F)c5)cc34)c(NC3CCOCC3)c2)C1([2H])[2H] [Compound T-2, N-(5-(3,5-difluorobenzyl)-1H-indazol-3-yl)-4-(4-methylpiperazin-1-yl-2,2,3,3,5,5,6,6-d8)-2-((tetrahydro-2H-pyran-4-yl)amino)benzamide]
microsomal CLint at 1 μM [1]: 19.5 µL/min/mg | half-life at 1 μM [1]: 71.2 min | IC50 (KM12 (TPM3-TRKA) cells): 1 to 10 nM | IC50 [2]: 10 to 50 nM | IC50 (Ba/F3 EML-ALK cells): 50 to 150 nM | microsomal CLint at 1 μM [3]: 31.3 µL/min/mg | half-life at 1 μM [3]: 44.3 min

[2H]C([2H])(c1cc(F)cc(F)c1)c1ccc2[nH]nc(NC(=O)c3ccc(N4CCN(C([2H])([2H])[2H])CC4)cc3NC3CCOCC3)c2c1 [Compound T-11, N-(5-((3,5-difluorophenyl)methyl-d2)-1H-indazol-3-yl)-4-(4-(methyl-d3)piperazin-1-yl)-2-((tetrahydro-2H-pyran-4-yl)amino)benzamide]
microsomal CLint at 1 μM [1]: 31 µL/min/mg | half-life at 1 μM [1]: 44.6 min | IC50 [4]: > 200 nM | IC50 (Ba/F3 EML-ALK cells; [6]): 10 to 50 nM | microsomal CLint at 1 μM [3]: 45 µL/min/mg | half-life at 1 μM [3]: 30.8 min

[2H]c1cc(C(=O)Nc2n[nH]c3ccc(Cc4cc(F)cc(F)c4)cc23)c(NC2CCOCC2)c([2H])c1N1CCN(C)CC1 [Compound T-4, N-(5-(3,5-difluorobenzyl)-1H-indazol-3-yl)-4-(4-methylpiperazin-1-yl)-2-((tetrahydro-2H-pyran-4-yl)amino)benzamide-3,5-d]
microsomal CLint at 1 μM [1]: 21.9 µL/min/mg | half-life at 1 μM [1]: 63.3 min | IC50 [4]: > 200 nM | IC50 (Ba/F3 EML-ALK cells; [6]): 50 to 150 nM | microsomal CLint at 1 μM [3]: 36.2 µL/min/mg | half-life at 1 μM [3]: 38.3 min

[2H]c1cc(C(=O)Nc2n[nH]c3ccc(Cc4cc(F)cc(F)c4)cc23)c(NC2CCOCC2)c([2H])c1N1CCN(C([2H])([2H])[2H])CC1 [Compound T-5, N-(5-(3,5-difluorobenzyl)-1H-indazol-3-yl)-4-(4-(methyl-d3)piperazin-1-yl)-2-((tetrahydro-2H-pyran-4-yl)amino)benzamide-3,5-d2]
microsomal CLint at 1 μM [1]: 31 µL/min/mg | half-life at 1 μM [1]: 44.7 min | IC50 [4]: > 200 nM | IC50 (Ba/F3 EML-ALK cells; [6]): 50 to 150 nM | microsomal CLint at 1 μM [3]: 48.2 µL/min/mg | half-life at 1 μM [3]: 28.8 min

[2H]C1([2H])CC(Nc2cc(N3CCN(C)CC3)ccc2C(=O)Nc2n[nH]c3ccc(Cc4cc(F)cc(F)c4)cc23)CC([2H])([2H])O1 [Compound T-8, N-(5-(3,5-difluorobenzyl)-1H-indazol-3-yl)-4-(4-methylpiperazin-1-yl)-2-((tetrahydro-2H-pyran-4-yl-2,2,6,6-d4)amino)benzamide]
microsomal CLint at 1 μM [1]: 33.6 µL/min/mg | half-life at 1 μM [1]: 41.3 min | Cl_pred [5]: 113 mL/min/kg | F [5]: 11.78% | AUC(0-t) [5]: 1530 ng·h/mL | Cmax [5]: 254 ng/mL | MRT [5]: 265 min | Tmax [5]: 200 min | IC50 [4]: > 200 nM | IC50 (Ba/F3 EML-ALK cells; [6]): 50 to 150 nM | microsomal CLint at 1 μM [3]: 44.9 µL/min/mg | half-life at 1 μM [3]: 30.9 min

[2H]c1c(F)cc(Cc2ccc3[nH]nc(NC(=O)c4ccc(N5CCN(C)CC5)cc4NC4CCOCC4)c3c2)cc1F [Compound T-9]
microsomal CLint at 1 μM [1]: 33.7 µL/min/mg | half-life at 1 μM [1]: 41.1 min | IC50 [4]: > 200 nM | IC50 (Ba/F3 EML-ALK cells; [6]): 50 to 150 nM | microsomal CLint at 1 μM [3]: 47.5 µL/min/mg | half-life at 1 μM [3]: 29.2 min

[2H]c1cc(C(=O)Nc2n[nH]c3ccc(Cc4cc(F)cc(F)c4)cc23)c(NC2CCOCC2)c([2H])c1N1C([2H])([2H])C([2H])([2H])N(C([2H])([2H])[2H])C([2H])([2H])C1([2H])[2H] [Compound T-6, N-(5-(3,5-difluorobenzyl)-1H-indazol-3-yl)-4-(4-(methyl-d3)piperazin-1-yl-2,2,3,3,5,5,6,6-d8)-2-((tetrahydro-2H-pyran-4-yl)amino)benzamide-3,5-d2]
microsomal CLint at 1 μM [1]: 29.7 µL/min/mg | half-life at 1 μM [1]: 46.7 min | IC50 [4]: > 200 nM | IC50 (Ba/F3 EML-ALK cells; [6]): 50 to 150 nM | microsomal CLint at 1 μM [3]: 42.5 µL/min/mg | half-life at 1 μM [3]: 32.6 min

[2H]C([2H])(c1cc(F)cc(F)c1)c1ccc2[nH]nc(NC(=O)c3ccc(N4CCN(C)CC4)cc3NC3CCOCC3)c2c1 [Compound T-7, N-(5-((3,5-difluorophenyl)methyl-d2)-1H-indazol-3-yl)-4-(4-methylpiperazin-1-yl)-2-((tetrahydro-2H-pyran-4-yl)amino)benzamide]
microsomal CLint at 1 μM [1]: 33.7 µL/min/mg | half-life at 1 μM [1]: 41.1 min | Cl_pred [5]: 97.5 mL/min/kg | F [5]: 13.67% | AUC(0-t) [5]: 1770 ng·h/mL | Cmax [5]: 278 ng/mL | MRT [5]: 317 min | Tmax [5]: 240 min | IC50 [4]: > 200 nM | IC50 (Ba/F3 EML-ALK cells; [6]): 50 to 150 nM | microsomal CLint at 1 μM [3]: 51.1 µL/min/mg | half-life at 1 μM [3]: 27.1 min

[2H]C([2H])([2H])N1C([2H])([2H])C([2H])([2H])N(c2ccc(C(=O)Nc3n[nH]c4ccc(Cc5cc(F)cc(F)c5)cc34)c(NC3CCOCC3)c2)C([2H])([2H])C1([2H])[2H] [Compound T-3, N-(5-(3,5-difluorobenzyl)-1H-indazol-3-yl)-4-(4-(methyl-d3)piperazin-1-yl-2,2,3,3,5,5,6,6-d8)-2-((tetrahydro-2H-pyran-4-yl)amino)benzamide]
microsomal CLint at 1 μM [1]: 27.3 µL/min/mg | half-life at 1 μM [1]: 50.7 min | Cl_pred [5]: 411 mL/min/kg | F [5]: 13.03% | AUC(0-t) [5]: 1550 ng·h/mL | Cmax [5]: 237 ng/mL | MRT [5]: 295 min | Tmax [5]: 200 min | IC50 [4]: > 200 nM | IC50 (Ba/F3 EML-ALK cells; [6]): 50 to 150 nM | microsomal CLint at 1 μM [3]: 39.2 µL/min/mg | half-life at 1 μM [3]: 35.4 min
